Measurements from PubChem BioAssay (NCI).
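GI50 = concentration required for 50% inhibition of growth. TGI is the concentration that stops growth completely.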

Assays:
Experiment in all cases: NCI-60 cell line screen, 384-well format
OVCAR-8 ovarian = tested on: OVCAR-8 ovarian
NCI-H460 NSCLC = tested on: NCI-H460 NSCLC
PC-3 prostate = tested on: PC-3 prostate
CCRF-CEM leukemia = tested on: CCRF-CEM leukemia
HOP-62 NSCLC = tested on: HOP-62 NSCLC
UACC-62 melanoma = tested on: UACC-62 melanoma
OVCAR-3 ovarian = tested on: OVCAR-3 ovarian
LOX IMVI melanoma = tested on: LOX IMVI melanoma
OVCAR-4 ovarian = tested on: OVCAR-4 ovarian
CAKI-1 renal = tested on: CAKI-1 renal
A498 renal = tested on: A498 renal
NCI-H522 lung = tested on: NCI-H522 lung
SF-539 CNS = tested on: SF-539 CNS
BT-549 breast = tested on: BT-549 breast
MDA-MB-435 melanoma = tested on: MDA-MB-435 melanoma
SF-295 CNS = tested on: SF-295 CNS
UACC-257 melanoma = tested on: UACC-257 melanoma
NCI-H322M lung = tested on: NCI-H322M lung
MDA-MB-231 breast = tested on: MDA-MB-231 breast
KM12 colon = tested on: KM12 colon
T-47D breast = tested on: T-47D breast
EKVX NSCLC = tested on: EKVX NSCLC
SW-620 colon = tested on: SW-620 colon
SK-MEL-28 melanoma = tested on: SK-MEL-28 melanoma
RPMI-8226 leukemia = tested on: RPMI-8226 leukemia
SN12C renal = tested on: SN12C renal
ACHN renal = tested on: ACHN renal
OVCAR-5 ovarian = tested on: OVCAR-5 ovarian
RXF 393 renal = tested on: RXF 393 renal
HCT-116 colon = tested on: HCT-116 colon
NCI/ADR-RES ovarian = tested on: NCI/ADR-RES ovarian
786-0 renal = tested on: 786-0 renal
SK-OV-3 ovarian = tested on: SK-OV-3 ovarian
HL-60(TB) leukemia = tested on: HL-60(TB) leukemia
MDA-MB-468 breast = tested on: MDA-MB-468 breast
MALME-3M melanoma = tested on: MALME-3M melanoma
HT29 colon = tested on: HT29 colon
SF-268 CNS = tested on: SF-268 CNS
NCI-H23 lung = tested on: NCI-H23 lung
MCF7 breast = tested on: MCF7 breast
IGROV1 ovarian = tested on: IGROV1 ovarian
A549 NSCLC = tested on: A549 NSCLC
NCI-H226 lung = tested on: NCI-H226 lung
SNB-19 CNS = tested on: SNB-19 CNS
UO-31 renal = tested on: UO-31 renal
COLO 205 colon = tested on: COLO 205 colon
HCC-2998 colon = tested on: HCC-2998 colon

O=C1Nc2ccc(I)cc2/C1=C/c1cc(Br)c(O)c(Br)c1
GI50 (OVCAR-8 ovarian): 17.2 µM
TGI (OVCAR-8 ovarian): 37.4 µM
GI50 (NCI-H460 NSCLC): 14.9 µM
TGI (NCI-H460 NSCLC): 28.6 µM
GI50 (PC-3 prostate): 13.6 µM
TGI (PC-3 prostate): 27.1 µM
GI50 (CCRF-CEM leukemia): 11.3 µM
TGI (CCRF-CEM leukemia): 23.4 µM
GI50 (HOP-62 NSCLC): 20.4 µM
TGI (HOP-62 NSCLC): 39.9 µM
GI50 (UACC-62 melanoma): 7.69 µM
TGI (UACC-62 melanoma): 21 µM
GI50 (OVCAR-3 ovarian): 6.34 µM
TGI (OVCAR-3 ovarian): 19.2 µM
GI50 (LOX IMVI melanoma): 13 µM
TGI (LOX IMVI melanoma): 29.4 µM
GI50 (OVCAR-4 ovarian): 19.1 µM
TGI (OVCAR-4 ovarian): 47.1 µM
GI50 (CAKI-1 renal): 21.3 µM
TGI (CAKI-1 renal): 43.9 µM
GI50 (A498 renal): 16 µM
TGI (A498 renal): 30.7 µM
GI50 (NCI-H522 lung): 13.2 µM
TGI (NCI-H522 lung): 26.1 µM
GI50 (SF-539 CNS): 15.4 µM
TGI (SF-539 CNS): 30.1 µM
GI50 (BT-549 breast): 11.7 µM
TGI (BT-549 breast): 26.8 µM
GI50 (MDA-MB-435 melanoma): 8.13 µM
TGI (MDA-MB-435 melanoma): 29.1 µM
GI50 (SF-295 CNS): 11.9 µM
TGI (SF-295 CNS): 34.2 µM
GI50 (UACC-257 melanoma): 14.9 µM
TGI (UACC-257 melanoma): 33.3 µM
GI50 (NCI-H322M lung): 15.7 µM
TGI (NCI-H322M lung): 39.6 µM
GI50 (MDA-MB-231 breast): 14 µM
TGI (MDA-MB-231 breast): 31.7 µM
GI50 (KM12 colon): 12.5 µM
TGI (KM12 colon): 27.6 µM
GI50 (T-47D breast): 12.8 µM
TGI (T-47D breast): 30 µM
GI50 (EKVX NSCLC): 14.3 µM
TGI (EKVX NSCLC): 30.2 µM
GI50 (SW-620 colon): 16.9 µM
TGI (SW-620 colon): 31.4 µM
GI50 (SK-MEL-28 melanoma): 6.3 µM
TGI (SK-MEL-28 melanoma): 34.8 µM
GI50 (RPMI-8226 leukemia): 6.64 µM
TGI (RPMI-8226 leukemia): 19.2 µM
GI50 (SN12C renal): 21.6 µM
TGI (SN12C renal): 48.5 µM
GI50 (ACHN renal): 15.7 µM
TGI (ACHN renal): 35.7 µM
GI50 (OVCAR-5 ovarian): 25.1 µM
TGI (OVCAR-5 ovarian): 65 µM
GI50 (RXF 393 renal): 12.6 µM
TGI (RXF 393 renal): 25.5 µM
GI50 (HCT-116 colon): 16.3 µM
TGI (HCT-116 colon): 30.4 µM
GI50 (NCI/ADR-RES ovarian): 18 µM
TGI (NCI/ADR-RES ovarian): 43.5 µM
GI50 (786-0 renal): 13.9 µM
TGI (786-0 renal): 27.4 µM
GI50 (SK-OV-3 ovarian): 16.2 µM
TGI (SK-OV-3 ovarian): 34.8 µM
GI50 (HL-60(TB) leukemia): 11.3 µM
TGI (HL-60(TB) leukemia): 23.4 µM
GI50 (MDA-MB-468 breast): 11.7 µM
TGI (MDA-MB-468 breast): 25.2 µM
GI50 (MALME-3M melanoma): 4.43 µM
TGI (MALME-3M melanoma): 20.8 µM
GI50 (HT29 colon): 14.1 µM
TGI (HT29 colon): 31.1 µM
GI50 (SF-268 CNS): 16.3 µM
TGI (SF-268 CNS): 52 µM
GI50 (NCI-H23 lung): 14.1 µM
TGI (NCI-H23 lung): 27.6 µM
GI50 (MCF7 breast): 10.1 µM
TGI (MCF7 breast): 25.3 µM
GI50 (IGROV1 ovarian): 18.6 µM
TGI (IGROV1 ovarian): 41 µM
GI50 (A549 NSCLC): 17.2 µM
TGI (A549 NSCLC): 46 µM
GI50 (NCI-H226 lung): 27.2 µM
TGI (NCI-H226 lung): 68.5 µM
GI50 (SNB-19 CNS): 21.4 µM
TGI (SNB-19 CNS): 56.3 µM
GI50 (UO-31 renal): 13.1 µM
TGI (UO-31 renal): 28.2 µM
GI50 (COLO 205 colon): 10.2 µM
TGI (COLO 205 colon): 23.5 µM
GI50 (HCC-2998 colon): 22.8 µM
TGI (HCC-2998 colon): 38 µM
